Data published in patent US5973116A, “Compounds for targeting” (Imperial Cancer Research Technology Limited, priority 1993, dated 1999).
Like-named read-outs stand apart in the source and are kept apart here.

Experiments:
[1] = target: pRAS111 ScFvNP protein (VHNP (G4S)3 VλJ558L, SEQ ID No 3); assay: ELISA-based affinity determinations of pRAS111 ScFvNP protein (methods of Mariani et al 1987 and Hogg et al 1987); type: binding, mouse; settings: for Kd: antigen coat
From the text: Affinity of pRAS111 ScFv for NIP was estimated firstly by adapting the method of Mariani et al (1987) Molec. Immunol. […] This approximation only holds true if the number of available binding sites per well is sufficiently low that their contribution is insignificant. Determinations of Kapp should approach Kactual as the amount of antigen per well is reduced.
To confirm the accuracy of this approach, similar estimations of K were made using the method of Hogg et al (1987) Molec. Immunol. 24, 797-801) in the absence of competing antigen, by calculating the slope of the linear portion of a plot of A450 /[ScFvNP ] v A450, where A450 /[ScFvNP ]=fKn-fK(A450), A450 is the absorbance at 450 nm, [ScFvNP ] is the concentration of added ScFvNP, n is the concentration of available binding sites and f is the valency of the ScFvNP for NIP. A value of 1 was assigned to f.

[2] = target: ScFv encoded by pRAS111 (ScFvNP, VHNP (G4S)3 VλJ558L, SEQ ID No 3); assay: ELISA binding and competition of pRAS111 ScFv on a NIP15-BSA coat; parameters: species or system mouse; settings: read-out: binding affinity for NP, Kd
Protocol: Filtered bacterial supernatants were applied to wells of a 96-well plate previously coated with […] NIP15 -BSA or […] egg lysozyme, and bound protein was detected by serial incubation with biotinylated Gαmλ antiserum and HRPO-streptavidin conjugate. Colour changes were generated by incubation with ABTS and were monitored at 405 nm.
A soluble protein present in the growth medium of JM109 (DE3)/pRAS111 cultures, but not in cultures of JM109 (DE3), binds NIP15 -BSA, but not lysozyme (FIG. 5). Filtered bacterial growth medium recovered after induction of pRAS111 protein was applied to wells of an ELISA plate coated with 10 μg.ml^-1 NIP15 -BSA (.circle-w/dot.) or 300 μg.ml^-1 hen egg lysozyme (.diamond-solid.). Bound protein was detected by serial incubation with biotinylated Gαmλ (Goat anti-mouse lambda light chain) antisera and horseradish peroxidase conjugated streptavidin diluted in blocking buffer, and colour changes generated by addition of ABTS were monitored at 405 nm. A soluble protein present in the growth medium of JM109(DE3)/pRAS111 cultures, but not in cultures of JM109(DE3), binds NIP15 -BSA, can be competed with NIP15 -BSA (FIG. 6). […] Bound protein was detected by serial incubation with biotinylated Gαmλ antisera and horseradish peroxidase conjugated streptavidin, and colour changes generated by addition of ABTS were monitored at 405 nm.

[3] = concn 5 mg ml^-1 of coating buffer, no competing antigen, f = 1, read-out: K, Hogg et al (1987) (converted)
[4] = concn 5 mg ml^-1 of coating buffer, read-out: K, Mariani et al (1987) (converted)

“NIP4 BSA: low coupling ratio NIP-BSA, 3.7 haptens per protein molecule” was tested, and the Kd [1, 3] was 5.56 nM, the Kd [1, 4] was 4 nM and the Kd ([1]; concn 10 mg ml^-1 of coating buffer, no competing antigen, f = 1, read-out: K, Hogg et al (1987) (converted)) was 8.33 nM. It also gave a Kd ([1]; concn 10 mg ml^-1 of coating buffer, read-out: K, Mariani et al (1987) (converted)) of 3.45 nM.

With “NIP conjugated to BSA: hapten NIP coupled to BSA via NIP-cap-OSu” the “affinity for NIP conjugated to BSA” value ([1]; pH 7.4) was 1-3×10^8 M^-1.

With “NIP16 BSA: high coupling ratio NIP-BSA, 16.4 haptens per protein molecule” the Kd ([1]; concn 1 mg ml^-1 of coating buffer, no competing antigen, f = 1, read-out: K, Hogg et al (1987) (converted)) was 1.23 nM, the Kd ([1]; concn 1 mg ml^-1 of coating buffer, read-out: K, Mariani et al (1987) (converted)) was 1.22 nM and the Kd [1, 3] was 0.625 nM. For the same molecule, the Kd [1, 4] was 0.4 nM.

`O=C(O)Cc1cc(I)c(O)c([N+](=O)[O-])c1` [NIP, 4-hydroxy-3-iodo-5-nitrophenylacetic acid] was tested, and the “Kapp, affinity for NIP (K)” value ([1]; method of Mariani et al (1987), Ct50 = 1/Kapp, at low amount of antigen per well) was 2-3×10^8 M^-1.

`O=C(O)Cc1ccc(O)c([N+](=O)[O-])c1` [NP, 4-hydroxy-3-nitrophenylacetic acid] gave a Kd [2] of 4 nM.
